According to the supplement of paper PMC10307832:

Legend:
Assay in all cases: relative viability (nuclei count vs DMSO), 5 days (fraction); higher = more cells survive
Mirin + Foretinib = compound: N=C1NC(=O)/C(=C/c2ccc(O)cc2)S1 [Mirin] + COc1cc2c(Oc3ccc(NC(=O)C4(C(=O)Nc5ccc(F)cc5)CC4)cc3F)ccnc2cc1OCCCN1CCOCC1 [Foretinib] (partner 0.25 µM)
Outline: (§1)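 Lung cancer cell lines were seeded in 1536-well plates and dosed by pin tool the next day, with either a single drug or a fixed anchor-drug dose combined with five library-drug doses (not always all listed) spaced in √10 steps. Five days later, one step fixed the cells and stained their nuclei (final 0.05% Triton X-100, 1% formaldehyde, 1 ug/ml Hoechst), and nuclei were counted on 4× images. Relative viability is the nuclei count in treated wells divided by the count in vehicle wells, and each value is the median of duplicate plates.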

[1] = compound: CCC1=CN=CN=C1N2CCN(CC2)CC3=NC4=C(N3)C=C(C=C4)C(F)(F)F + Nc1ncn([C@H]2C[C@H](O)[C@@H](CO)O2)c(=O)n1 [Decitabine] (partner 2 µM)
Outline: as §1

[2] = compound: CCn1c(-c2nonc2N)nc2cnc(Oc3cccc(NC(=O)c4ccc(OCCN5CCOCC5)cc4)c3)cc21 + Nc1ncn([C@H]2C[C@H](O)[C@@H](CO)O2)c(=O)n1 [Decitabine] (partner 2 µM)
Outline: as §1

[3] = compound: CCC1=CN=CN=C1N2CCN(CC2)CC3=NC4=C(N3)C=C(C=C4)C(F)(F)F + COc1cccc2cc(-c3nc([C@H]4CC[C@H](C(=O)O)CC4)n4ncnc(N)c34)[nH]c12 [OSI-027] (partner 0.5 µM)
Outline: as §1

| Cell Line | relative viability (Mirin + Foretinib; first compound 0.25 µM) | relative viability (Mirin + Foretinib; first compound 0.7906 µM) | relative viability (Mirin + Foretinib; first compound 2.5 µM) | relative viability (Mirin + Foretinib; first compound 7.906 µM) | relative viability (Mirin + Foretinib; first compound 25 µM) | relative viability ([1]; first compound 0.04 µM) | relative viability ([1]; first compound 0.1265 µM) | relative viability ([1]; first compound 0.4 µM) | relative viability ([1]; first compound 1.265 µM) | relative viability ([1]; first compound 4 µM) | relative viability ([2]; first compound 0.04 µM) | relative viability ([2]; first compound 0.1265 µM) | relative viability ([2]; first compound 0.4 µM) | relative viability ([2]; first compound 1.265 µM) | relative viability ([2]; first compound 4 µM) | relative viability ([3]; first compound 0.04 µM) | relative viability ([3]; first compound 0.1265 µM) | relative viability ([3]; first compound 0.4 µM) | relative viability ([3]; first compound 4 µM) | relative viability ([3]; first compound 1.265 µM) |
| --- | --- | --- | --- | --- | --- | --- | --- | --- | --- | --- | --- | --- | --- | --- | --- | --- | --- | --- | --- | --- |
| NCI-H1650 | 1.22 | 1.11 | 0.968 | 1.43 | 0.782 | 0.372 | 0.419 | 0.377 | 0.417 | 0.536 | 0.504 | 0.282 | 0.348 | 0.604 | 0.478 | 0.635 | 0.621 | 0.565 | 0.752 | – |
| NCI-H1651 | 0.814 | 0.845 | 0.773 | 0.678 | 0.69 | 0.623 | 0.413 | 0.667 | 0.602 | 0.581 | 0.74 | 0.728 | 0.581 | 0.271 | 0.488 | 0.805 | 0.795 | 0.641 | 0.788 | 0.757 |
| NCI-H1666 | 0.963 | 1.03 | 1.04 | 0.941 | 0.836 | 0.746 | 0.733 | 0.699 | 0.65 | 0.719 | 0.796 | 0.787 | 0.751 | 0.653 | 0.704 | 0.736 | 0.81 | 0.816 | 0.873 | 0.803 |
| NCI-H1734 | 0.847 | 0.739 | 0.788 | 0.849 | 0.702 | 0.458 | 0.465 | 0.566 | 0.499 | 0.489 | 0.574 | 0.504 | 0.515 | 0.459 | 0.393 | 0.601 | 0.557 | 0.58 | 0.714 | 0.513 |
| NCI-H1755 | 1 | 0.918 | 0.963 | 0.931 | 1.05 | 0.759 | 0.693 | 0.729 | 0.72 | 0.759 | 0.732 | 0.72 | 0.729 | 0.719 | 0.654 | 0.712 | 0.691 | 0.717 | 0.663 | 0.458 |
| NCI-H1793 | 0.731 | – | 0.739 | 0.777 | 0.559 | 0.479 | 0.484 | 0.436 | 0.428 | 0.432 | 0.36 | 0.474 | 0.499 | 0.457 | 0.369 | 0.22 | 0.301 | 0.25 | 0.259 | – |
| NCI-H1915 | 1.06 | – | 1.12 | 0.948 | 0.975 | 0.24 | 0.262 | 0.261 | 0.272 | 0.263 | 0.249 | 0.265 | 0.275 | 0.24 | 0.21 | 0.612 | 0.629 | 0.605 | 0.587 | 0.49 |
| NCI-H1944 | 0.824 | 0.95 | 0.888 | 0.814 | 0.557 | 0.476 | 0.415 | 0.426 | 0.391 | 0.435 | 0.416 | 0.414 | 0.425 | 0.442 | 0.428 | 0.524 | 0.382 | 0.385 | 0.39 | 0.338 |
| NCI-H1975 | 0.934 | 0.914 | 0.98 | 0.919 | 0.973 | 0.358 | 0.396 | 0.41 | 0.339 | 0.393 | 0.311 | 0.289 | 0.293 | 0.228 | 0.201 | 0.766 | 0.68 | 0.676 | 0.64 | 0.579 |
| NCI-H1993 | 0.716 | – | 0.821 | 0.76 | 0.824 | 0.563 | 0.62 | 0.621 | 0.522 | 0.51 | 0.557 | 0.616 | 0.652 | 0.496 | 0.531 | 0.49 | 0.55 | 0.614 | 0.604 | 0.494 |
| NCI-H2009 | 1.19 | 1.33 | 1.2 | 1.19 | 1.17 | 0.381 | 0.348 | 0.361 | 0.37 | 0.373 | 0.292 | 0.304 | 0.25 | 0.216 | 0.175 | 0.591 | 0.68 | 0.589 | 0.591 | 0.502 |
| NCI-H2023 | 0.806 | 0.837 | 0.993 | 0.894 | 0.919 | 0.21 | 0.218 | 0.224 | 0.215 | 0.252 | 0.232 | 0.231 | 0.216 | 0.173 | 0.199 | 0.447 | 0.403 | 0.342 | 0.453 | 0.321 |
| NCI-H2085 | 0.948 | 0.999 | 0.941 | 1.1 | 1 | 0.487 | 0.526 | 0.557 | 0.476 | 0.573 | 0.433 | 0.581 | 0.528 | 0.466 | 0.472 | 0.825 | 0.608 | 0.728 | 0.724 | 0.328 |
| NCI-H2087 | 1.24 | 1.28 | 1 | 0.943 | 1.08 | 0.278 | 0.234 | 0.331 | 0.271 | 0.209 | 0.321 | 0.324 | 0.285 | 0.289 | 0.315 | 0.584 | 0.56 | 0.385 | 0.5 | 0.451 |
